{"source": "patent US20240382507A1", "about": "“PHARMACEUTICAL COMPOSITIONS COMPRISING 2,3,4,5- TETRAHYDROBENZOTHIEPIN- 1,1-DIOXIDE DERIVATIVES AND THE USE THEREOF” (Mirum Pharmaceuticals, Inc., priority 2023, published 2024)", "key": {"[1]": {"experiment": "Excipient compatibility: potency and purity of binary volixibat:excipient formulations on storage (HPLC)", "format": "physicochemical", "protocol": "Binary formulations of volixibat potassium were prepared at either 1:1 or 10:1 ratio with the excipients outlined in Table 1.1. Powder grade excipients were utilized to maximize surface area interactions between excipient and drug substance.\nEach formulation was prepared at 300 mg total sample size. Volixibat and each excipient was weighed into glass vials and mixed via vortex. A single vial of each formulation was stored loosely capped at two storage conditions: ambient/60% RH and 40° C./75% RH. Humidity control was obtained by using a saturated salt solution in a sealed container. […] A standard solution of volixibat DS prepared at nominal concentration in the analytical diluent served as the T=0 data point. The neat, loose drug substance powder was stored in the same vial configuration to serve as a control at each storage condition.\nAt the specified time points, approximately 50 mg of each formulation was sampled and diluted with analytical diluent in either 50 mL (for 1:1 formulations) or 100 mL (for […] and neat DS) to target nominal analytical concentration of 0.5 mg/mL volixibat. HPLC analysis was used based on the parameters described above under HPLC Parameters (Gradient Elution)."}, "[2]": {"experiment": "Formulation flow properties", "format": "physicochemical"}, "physchem": {"experiment": "physchem", "conditions": "25 °C, water"}}, "note": "Counter-ions that a name gives are not always drawn."}
{"smiles": "CCCC[C@]1(CC)CS(=O)(=O)c2ccc(N(C)C)cc2[C@@H](c2cccc(NC(=O)N[C@@H]3O[C@H](COS(=O)(=O)[O-])[C@@H](O)[C@H](OCc4ccccc4)[C@H]3O)c2)[C@H]1O.[K+]", "note": "[Volixibat DS]", "values": [{"measurement": "Potency, % LC Volixibat", "setting": "[1]; stored at 40° C./75% RH, T = 2-weeks", "value": 93.2, "unit": "% LC"}, {"measurement": "Potency, % LC Volixibat", "setting": "[1]; stored at 40° C./75% RH, T = 4 weeks", "value": 105.1, "unit": "% LC"}, {"measurement": "Potency, % LC Volixibat", "setting": "[1]; stored at 40° C./75% RH, T = 8 weeks", "value": 98.3, "unit": "% LC"}, {"measurement": "Potency, % LC Volixibat", "setting": "[1]; stored at RT/60% RH, T = 2-weeks", "value": 100.9, "unit": "% LC"}, {"measurement": "Potency, % LC Volixibat", "setting": "[1]; stored at RT/60% RH, T = 4 weeks", "value": 107.7, "unit": "% LC"}, {"measurement": "Potency, % LC Volixibat", "setting": "[1]; stored at RT/60% RH, T = 9 weeks", "value": 97.1, "unit": "% LC"}, {"measurement": "Bulk Density", "setting": "[2]", "value": 0.54, "unit": "g/mL"}, {"measurement": "Hausner Ratio", "setting": "[2]", "value": 1.27}, {"measurement": "Tapped Density", "setting": "[2]", "value": 0.69, "unit": "g/mL"}]}
{"smiles": "CCCC[C@]1(CC)CS(=O)(=O)c2ccc(N(C)C)cc2[C@@H](c2cccc(NC(=O)N[C@@H]3O[C@H](COS(=O)(=O)O)[C@@H](O)[C@H](OCc4ccccc4)[C@H]3O)c2)[C@H]1O", "note": "[volixibat, ((2R,3R,4S,5R,6R)-4-benzyloxy-6-{3-[3-((3S,4R,5R)-3-butyl-7-dimethylamino-3-ethyl-4-hydroxy-1,1-dioxo-2,3,4,5-tetrahydro-1H-benzo[b]thiepin-5-yl)-phenyl]-ureido}-3,5-dihydroxy-tetrahydro-pyran-2-ylmethyl) hydrogen sulfate)]", "values": [{"measurement": "solubility", "setting": "physchem", "value": "> 200", "unit": "mg/mL"}]}
